The source of these data is ChEMBL document CHEMBL1201862, “PubChem BioAssay data set” (2004).

Molecules are shown by their SMILES. Calls of active or inactive are those of the source.

Assay [1] addresses Ephrin type-A receptor 4 (Mus musculus, UniProt Q03137). Nature of the assay: EphA4 ligand-binding antagonists – biochemical, colorimetric, mouse EphA4, primary screen (AID 689). It counts as functional.
Assay [2] can be described thus: HIV-1 Vif–A3G interaction blockers – biochemical, TR-FRET, GST-Vif 1-94, biotin-A3G peptide, dose response retest, primary screen (AID 1117319).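 Note: TR-FRET signal of purified GST-Vif binding a biotinylated A3G peptide; inhibitors lower the FRET signal by blocking Vif and A3G binding.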 It is filed as functional. (TR-FRET usually uses a lanthanide donor and a delayed reading to cut background.)
Assay [3] has as its target Estrogen receptor beta (Homo sapiens, UniProt Q92731).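 Note: recombinant ER-beta bound to coactivator SRC1 peptide in presence of estradiol agonist; inhibitors block coactivator peptide binding and lower the FRET signal.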
Assay [4] is described as follows: IC50 of Artemis nuclease activity blockers – biochemical, fluorescence intensity, dose response (AID 720701).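 Note: Artemis endonuclease enzyme.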 It counts as functional.
Assay [5] is described as follows: general cell-killing toxicity readout – plate reader, dry powder samples, cytotoxicity control for PAX8 inhibitor project, dose response (AID 743021). It counts as functional, cell-based.
The test system of assay [6] is BJ. The experiment in a line: growth inhibition of engineered Ras-driven BJ cells – cell-based, alamar blue fluorescence, cherrypicked samples, dose response (AID 2631).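 Note: confirmatory dose-response assay in RAS-dependent BJ fibroblasts engineered with TERT, LT and ST, with cytotoxicity read by fluorescence.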 It is filed as functional. Particulars: Homo sapiens. Background: Alamar Blue is a resazurin reagent that responds to reducing activity.
Assay [7] concerns the target Paired box protein Pax-8 (Homo sapiens, UniProt Q06710). The experiment in a line: PAX8 transcriptional activity inhibition in RMG-I – RMG-I cells, luciferase, cherry-pick, dose response (AID 687027).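 Note: luciferase reporter driven by Pax8 target thyroperoxidase promoter measured by SteadyGlo luminescence.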 It is filed as functional, cell-based.
In assay [8] the test system is INS1. Nature of the assay: INS-1E survival protection against cytokine death – cell-based, luminescence, retest, dose response (AID 449756).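 Note: cell death triggered by IL-1 beta plus TNF-alpha plus IFN-gamma mixture; protective hits raise ATP signal compared with cytokine alone wells.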 Particulars: Rattus norvegicus. It is filed as functional.
Assay [9] concerns the target E3 ubiquitin-protein ligase Mdm2 (Homo sapiens, UniProt Q00987). The experiment in a line: MDM2-luc reporter signal enhancers, multi-concentration potency testing, MDM2 ubiquitin-protein ligase inhibitor program, whole-cell format, luminescence detection, 384-well microplate (AID 1394).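 Note: MDM2 E3 inhibitors raise luminescence so EC50 is for signal enhancement.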 It is filed as functional.
Assay [10] can be described thus: NIH-3T3 fibroblast cytotoxicity, dose response, cytotoxicity control, cell-based, fluorescence, Alamar Blue, secondary assay (AID 2327).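 Note: NIH-3T3 mouse fibroblasts cultured with fluconazole at 8 µg/mL.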 It counts as functional.
Assay [11] is described as follows: M. tuberculosis growth inhibition, HTS (AID 449762). It is filed as functional.
Assay [12] is described as follows: Fluorescence Cell-Based Dose Response to Identify Inhibitors of Thrombin Receptor-Activating Peptide SFLLRN-Mediated P-Selectin Induction on Platelets. [Related pubchem assays: 1663 (Primary HTS), 1889 (retest at dose ), 1891 (counterscreen), 1678 (Project Summary)]. It counts as functional. A general note: The purpose of a counterscreen is to sort out artefacts and off-target activity.

Assay [13] has as its target Luciferin 4-monooxygenase (Photinus pyralis, UniProt P08659). Nature of the assay: inhibition of purified Photinus pyralis luciferase – biochemical, luminescence, dose response (AID 1891).
Assay [14] is described as follows: Luminescence Cell-Based Dose Confirmation HTS to Identify Inhibitors of Platelet Dense Granule Release. [Related pubchem assays: 1663 (Primary HTS), 1678 (Summary of Project)]. It is filed as functional.

Chain of Estrogen receptor beta (Q92731 whole entry): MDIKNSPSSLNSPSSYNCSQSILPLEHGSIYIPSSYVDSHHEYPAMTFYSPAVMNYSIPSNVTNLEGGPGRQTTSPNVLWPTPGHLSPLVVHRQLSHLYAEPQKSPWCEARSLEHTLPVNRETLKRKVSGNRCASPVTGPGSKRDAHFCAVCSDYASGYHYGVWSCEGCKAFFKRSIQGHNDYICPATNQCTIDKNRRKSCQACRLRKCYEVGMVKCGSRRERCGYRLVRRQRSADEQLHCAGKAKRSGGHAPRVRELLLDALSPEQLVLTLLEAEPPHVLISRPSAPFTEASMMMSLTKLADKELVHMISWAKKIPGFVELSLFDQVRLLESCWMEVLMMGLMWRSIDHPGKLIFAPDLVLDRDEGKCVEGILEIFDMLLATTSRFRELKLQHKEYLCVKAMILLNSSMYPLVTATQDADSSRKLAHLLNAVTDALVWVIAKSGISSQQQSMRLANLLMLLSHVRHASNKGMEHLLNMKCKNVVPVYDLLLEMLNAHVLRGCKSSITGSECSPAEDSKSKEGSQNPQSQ
Chain of E3 ubiquitin-protein ligase Mdm2 (Q00987 whole entry): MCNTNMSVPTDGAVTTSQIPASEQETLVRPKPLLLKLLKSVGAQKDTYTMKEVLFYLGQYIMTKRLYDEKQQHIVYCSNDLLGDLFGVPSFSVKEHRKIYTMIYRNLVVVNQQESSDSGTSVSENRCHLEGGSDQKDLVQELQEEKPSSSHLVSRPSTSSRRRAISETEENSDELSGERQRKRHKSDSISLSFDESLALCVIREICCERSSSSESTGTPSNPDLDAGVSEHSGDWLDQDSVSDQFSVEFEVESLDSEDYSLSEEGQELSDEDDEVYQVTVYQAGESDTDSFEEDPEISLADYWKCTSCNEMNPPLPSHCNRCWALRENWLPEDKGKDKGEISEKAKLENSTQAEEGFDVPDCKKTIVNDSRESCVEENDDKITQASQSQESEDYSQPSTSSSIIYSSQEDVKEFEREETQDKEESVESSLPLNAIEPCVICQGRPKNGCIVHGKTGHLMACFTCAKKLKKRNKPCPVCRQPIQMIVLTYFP
Chain of Luciferin 4-monooxygenase (P08659 whole entry): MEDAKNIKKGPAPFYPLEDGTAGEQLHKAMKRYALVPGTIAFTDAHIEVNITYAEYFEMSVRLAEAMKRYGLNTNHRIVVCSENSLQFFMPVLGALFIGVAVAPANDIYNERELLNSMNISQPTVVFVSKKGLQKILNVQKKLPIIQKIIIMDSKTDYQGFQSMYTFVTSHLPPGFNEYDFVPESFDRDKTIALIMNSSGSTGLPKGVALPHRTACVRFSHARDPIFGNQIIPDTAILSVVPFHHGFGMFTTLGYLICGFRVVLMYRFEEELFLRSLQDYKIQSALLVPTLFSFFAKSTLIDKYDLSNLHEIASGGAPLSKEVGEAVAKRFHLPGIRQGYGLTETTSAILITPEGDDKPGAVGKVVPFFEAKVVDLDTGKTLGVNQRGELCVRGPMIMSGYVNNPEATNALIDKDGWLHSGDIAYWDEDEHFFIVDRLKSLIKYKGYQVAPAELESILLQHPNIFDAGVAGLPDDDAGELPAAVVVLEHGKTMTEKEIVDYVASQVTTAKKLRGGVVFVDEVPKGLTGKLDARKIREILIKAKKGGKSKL
Chain of Paired box protein Pax-8 (Q06710 whole entry): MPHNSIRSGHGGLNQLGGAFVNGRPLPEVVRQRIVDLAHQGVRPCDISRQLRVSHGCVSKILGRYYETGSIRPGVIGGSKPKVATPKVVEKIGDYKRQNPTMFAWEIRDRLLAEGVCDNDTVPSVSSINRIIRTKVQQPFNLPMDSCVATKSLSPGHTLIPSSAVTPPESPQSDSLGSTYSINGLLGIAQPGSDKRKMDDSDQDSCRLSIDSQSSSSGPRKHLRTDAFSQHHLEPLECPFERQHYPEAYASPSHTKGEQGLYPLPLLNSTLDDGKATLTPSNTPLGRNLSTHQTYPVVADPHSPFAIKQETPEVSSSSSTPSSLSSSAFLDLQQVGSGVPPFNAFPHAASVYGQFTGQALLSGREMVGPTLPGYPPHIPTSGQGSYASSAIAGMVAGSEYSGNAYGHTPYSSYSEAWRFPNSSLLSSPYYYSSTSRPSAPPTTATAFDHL
Chain of Ephrin type-A receptor 4 (Q03137 whole entry): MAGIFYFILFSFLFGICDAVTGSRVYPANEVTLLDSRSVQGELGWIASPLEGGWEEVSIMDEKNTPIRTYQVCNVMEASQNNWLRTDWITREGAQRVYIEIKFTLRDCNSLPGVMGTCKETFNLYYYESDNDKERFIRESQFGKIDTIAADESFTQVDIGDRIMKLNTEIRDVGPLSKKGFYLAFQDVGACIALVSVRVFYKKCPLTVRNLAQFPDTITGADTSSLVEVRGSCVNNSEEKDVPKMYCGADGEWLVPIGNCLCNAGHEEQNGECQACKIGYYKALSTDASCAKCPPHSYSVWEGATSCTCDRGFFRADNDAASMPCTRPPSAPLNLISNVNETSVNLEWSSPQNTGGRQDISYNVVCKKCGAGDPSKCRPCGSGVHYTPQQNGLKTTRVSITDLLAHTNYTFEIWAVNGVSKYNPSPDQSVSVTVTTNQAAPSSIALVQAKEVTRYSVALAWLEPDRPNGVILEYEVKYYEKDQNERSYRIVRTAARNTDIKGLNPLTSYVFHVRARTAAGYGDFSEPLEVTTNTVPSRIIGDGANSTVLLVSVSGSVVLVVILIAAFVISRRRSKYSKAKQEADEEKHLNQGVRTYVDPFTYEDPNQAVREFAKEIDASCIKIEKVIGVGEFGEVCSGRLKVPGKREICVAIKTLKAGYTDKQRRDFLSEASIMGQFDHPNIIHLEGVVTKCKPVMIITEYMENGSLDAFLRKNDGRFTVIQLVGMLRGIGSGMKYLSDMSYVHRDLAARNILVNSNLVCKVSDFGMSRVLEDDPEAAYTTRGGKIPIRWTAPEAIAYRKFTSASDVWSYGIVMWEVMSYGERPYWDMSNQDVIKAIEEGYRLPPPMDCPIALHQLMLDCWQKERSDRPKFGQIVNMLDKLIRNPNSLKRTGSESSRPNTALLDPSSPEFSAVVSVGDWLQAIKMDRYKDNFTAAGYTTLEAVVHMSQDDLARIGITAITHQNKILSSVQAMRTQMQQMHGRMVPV

Regarding `Cc1ccc(C2=N/C(=C\c3cccs3)C(=O)N2Nc2ccccc2)cc1`, in assay [1], the IC50 (commonly the concentration needed to halve the response being measured) is 2.91 µM (active).
On to `COc1ccc(NC(=O)CSc2nc3c(cc2C#N)CN(C)CC3)cc1`, for which the IC50 in assay [2] is > 100 µM (active); in assay [3], > 50 µM (not active); in assay [4], > 20 µM (inactive).
As for `CC(=O)/C=C/n1c(=S)oc2ccccc21`, the AC50 (usually the midpoint of the concentration-response curve, whichever way the signal moves) in assay [5] was 10 µM (active); in assay [7] it was 5.95 µM (active); in assay [8], 8.12 µM (active). In addition, the 50% effective concentration (EC50) (in general, the concentration at which the effect is half-maximal) in assay [6] is 0.508 µM (inconclusive); in assay [9], 0.01 µM (not active); in [10], 3.97 µM (inconclusive).
In the case of `Nc1ccc2c(c1)oc1ccccc12`, the IC50 in assay [11] was > 100 µM (active).
In the case of `COC(=O)c1ccccc1NC(=O)Nc1ccc2c(c1)OCO2`, the EC50 in [12] was < 100 µM (not active); in assay [13], > 112 µM (not active); in [14] it was 5.7 µM (active).
